ChEMBL document CHEMBL2429768, “Eco-friendly synthesis and antimicrobial activities of substituted-5-(1H-indol-3-yl)methylene)-2,2-dimethyl-1,3-dioxane-4,6-dione derivatives” (2013)
Values after ≈ are worked out from the molar mass of the structure shown.

Assays:
Type in all cases: functional
Klebsiella pneumoniae [1] = assay: Antibacterial activity against Klebsiella pneumoniae after 24 hrs by agar well diffusion method
Aspergillus niger [2] = assay: Antifungal activity against Aspergillus niger at 300 ug/ml after 72 hrs by agar well diffusion method; settings: read-out: DIZ
Aspergillus niger [3] = assay: Antifungal activity against Aspergillus niger at 100 ug/ml after 72 hrs by agar well diffusion method; settings: read-out: DIZ
Klebsiella pneumoniae [4] = assay: Antibacterial activity against Klebsiella pneumoniae at 50 ug/ml after 24 hrs by agar well diffusion method; settings: read-out: DIZ
Aspergillus niger [5] = assay: Antifungal activity against Aspergillus niger after 72 hrs by agar well diffusion method
Fusarium oxysporum [6] = assay: Antifungal activity against Fusarium oxysporum at 200 ug/ml after 72 hrs by agar well diffusion method; settings: read-out: DIZ
Klebsiella pneumoniae [7] = assay: Antibacterial activity against Klebsiella pneumoniae at 200 ug/ml after 24 hrs by agar well diffusion method; settings: read-out: DIZ
Staphylococcus aureus [8] = assay: Antibacterial activity against Staphylococcus aureus ATCC 6538 after 24 hrs by agar well diffusion method; settings: ATCC 6538, 24 h
Fusarium oxysporum [9] = assay: Antifungal activity against Fusarium oxysporum at 100 ug/ml after 72 hrs by agar well diffusion method; settings: read-out: DIZ
Staphylococcus aureus [10] = assay: Antibacterial activity against Staphylococcus aureus ATCC 6538 at 500 ug/ml after 24 hrs by agar well diffusion method; settings: ATCC 6538, 24 h, read-out: DIZ
Staphylococcus aureus [11] = assay: Antibacterial activity against Staphylococcus aureus ATCC 6538 at 50 ug/ml after 24 hrs by agar well diffusion method; settings: ATCC 6538, 24 h, read-out: DIZ
Klebsiella pneumoniae [12] = assay: Antibacterial activity against Klebsiella pneumoniae at 500 ug/ml after 24 hrs by agar well diffusion method; settings: read-out: DIZ
Staphylococcus aureus [13] = assay: Antibacterial activity against Staphylococcus aureus ATCC 6538 at 100 ug/ml after 24 hrs by agar well diffusion method; settings: ATCC 6538, 24 h, read-out: DIZ
Escherichia coli [14] = assay: Antibacterial activity against Escherichia coli ATCC 8739 at 50 ug/ml after 24 hrs by agar well diffusion method; settings: ATCC 8739, 24 h, read-out: DIZ
Bacillus subtilis [15] = assay: Antibacterial activity against Bacillus subtilis at 50 ug/ml after 24 hrs by agar well diffusion method; settings: read-out: DIZ
Fusarium oxysporum [16] = assay: Antifungal activity against Fusarium oxysporum after 72 hrs by agar well diffusion method
Rhizoctonia solani [17] = assay: Antifungal activity against Rhizoctonia solani after 72 hrs by agar well diffusion method
Escherichia coli [18] = assay: Antibacterial activity against Escherichia coli ATCC 8739 at 500 ug/ml after 24 hrs by agar well diffusion method; settings: ATCC 8739, 24 h, read-out: DIZ
Fusarium oxysporum [19] = assay: Antifungal activity against Fusarium oxysporum at 50 ug/ml after 72 hrs by agar well diffusion method; settings: read-out: DIZ
Klebsiella pneumoniae [20] = assay: Antibacterial activity against Klebsiella pneumoniae at 100 ug/ml after 24 hrs by agar well diffusion method; settings: read-out: DIZ
Bacillus subtilis [21] = assay: Antibacterial activity against Bacillus subtilis after 24 hrs by agar well diffusion method
Rhizoctonia solani [22] = assay: Antifungal activity against Rhizoctonia solani at 100 ug/ml after 72 hrs by agar well diffusion method; settings: read-out: DIZ
Fusarium oxysporum [23] = assay: Antifungal activity against Fusarium oxysporum at 300 ug/ml after 72 hrs by agar well diffusion method; settings: read-out: DIZ
Aspergillus flavus [24] = assay: Antifungal activity against Aspergillus flavus at 200 ug/ml after 72 hrs by agar well diffusion method; settings: read-out: DIZ
Aspergillus niger [25] = assay: Antifungal activity against Aspergillus niger at 500 ug/ml after 72 hrs by agar well diffusion method; settings: read-out: DIZ
Escherichia coli [26] = assay: Antibacterial activity against Escherichia coli ATCC 8739 at 300 ug/ml after 24 hrs by agar well diffusion method; settings: ATCC 8739, 24 h, read-out: DIZ
Staphylococcus aureus [27] = assay: Antibacterial activity against Staphylococcus aureus ATCC 6538 at 200 ug/ml after 24 hrs by agar well diffusion method; settings: ATCC 6538, 24 h, read-out: DIZ
Aspergillus flavus [28] = assay: Antifungal activity against Aspergillus flavus after 72 hrs by agar well diffusion method
Rhizoctonia solani [29] = assay: Antifungal activity against Rhizoctonia solani at 50 ug/ml after 72 hrs by agar well diffusion method; settings: read-out: DIZ
Bacillus subtilis [30] = assay: Antibacterial activity against Bacillus subtilis at 500 ug/ml after 24 hrs by agar well diffusion method; settings: read-out: DIZ
Aspergillus flavus [31] = assay: Antifungal activity against Aspergillus flavus at 100 ug/ml after 72 hrs by agar well diffusion method; settings: read-out: DIZ
Bacillus subtilis [32] = assay: Antibacterial activity against Bacillus subtilis at 200 ug/ml after 24 hrs by agar well diffusion method; settings: read-out: DIZ
Escherichia coli [33] = assay: Antibacterial activity against Escherichia coli ATCC 8739 at 100 ug/ml after 24 hrs by agar well diffusion method; settings: ATCC 8739, 24 h, read-out: DIZ
Rhizoctonia solani [34] = assay: Antifungal activity against Rhizoctonia solani at 200 ug/ml after 72 hrs by agar well diffusion method; settings: read-out: DIZ
Fusarium oxysporum [35] = assay: Antifungal activity against Fusarium oxysporum at 500 ug/ml after 72 hrs by agar well diffusion method; settings: read-out: DIZ
Rhizoctonia solani [36] = assay: Antifungal activity against Rhizoctonia solani at 500 ug/ml after 72 hrs by agar well diffusion method; settings: read-out: DIZ
Bacillus subtilis [37] = assay: Antibacterial activity against Bacillus subtilis at 100 ug/ml after 24 hrs by agar well diffusion method; settings: read-out: DIZ
Rhizoctonia solani [38] = assay: Antifungal activity against Rhizoctonia solani at 300 ug/ml after 72 hrs by agar well diffusion method; settings: read-out: DIZ
Aspergillus flavus [39] = assay: Antifungal activity against Aspergillus flavus at 300 ug/ml after 72 hrs by agar well diffusion method; settings: read-out: DIZ
Aspergillus niger [40] = assay: Antifungal activity against Aspergillus niger at 50 ug/ml after 72 hrs by agar well diffusion method; settings: read-out: DIZ
Klebsiella pneumoniae [41] = assay: Antibacterial activity against Klebsiella pneumoniae at 300 ug/ml after 24 hrs by agar well diffusion method; settings: read-out: DIZ
Escherichia coli [42] = assay: Antibacterial activity against Escherichia coli ATCC 8739 after 24 hrs by agar well diffusion method; settings: ATCC 8739, 24 h
Bacillus subtilis [43] = assay: Antibacterial activity against Bacillus subtilis at 300 ug/ml after 24 hrs by agar well diffusion method; settings: read-out: DIZ
Escherichia coli [44] = assay: Antibacterial activity against Escherichia coli ATCC 8739 at 200 ug/ml after 24 hrs by agar well diffusion method; settings: ATCC 8739, 24 h, read-out: DIZ
Aspergillus flavus [45] = assay: Antifungal activity against Aspergillus flavus at 50 ug/ml after 72 hrs by agar well diffusion method; settings: read-out: DIZ
Aspergillus niger [46] = assay: Antifungal activity against Aspergillus niger at 200 ug/ml after 72 hrs by agar well diffusion method; settings: read-out: DIZ
Aspergillus flavus [47] = assay: Antifungal activity against Aspergillus flavus at 500 ug/ml after 72 hrs by agar well diffusion method; settings: read-out: DIZ
Staphylococcus aureus [48] = assay: Antibacterial activity against Staphylococcus aureus ATCC 6538 at 300 ug/ml after 24 hrs by agar well diffusion method; settings: ATCC 6538, 24 h, read-out: DIZ

COc1ccc2[nH]cc(C=C3C(=O)OC(C)(C)OC3=O)c2c1
MIC (Klebsiella pneumoniae [1]): 10 mg/L (≈ 33.2 µM)
zone of inhibition at 300 µg/mL (Aspergillus niger [2]): 14 mm
zone of inhibition at 100 µg/mL (Aspergillus niger [3]): 12 mm
zone of inhibition at 50 µg/mL (Klebsiella pneumoniae [4]): 11 mm
MIC (Aspergillus niger [5]): 30 mg/L (≈ 99.6 µM)
zone of inhibition at 200 µg/mL (Fusarium oxysporum [6]): 18 mm
zone of inhibition at 200 µg/mL (Klebsiella pneumoniae [7]): 20 mm
MIC (Staphylococcus aureus [8]): 20 mg/L (≈ 66.4 µM)
zone of inhibition at 100 µg/mL (Fusarium oxysporum [9]): 15 mm
zone of inhibition at 500 µg/mL (Staphylococcus aureus [10]): 28 mm
zone of inhibition at 50 µg/mL (Staphylococcus aureus [11]): 8 mm
zone of inhibition at 500 µg/mL (Klebsiella pneumoniae [12]): 34 mm
zone of inhibition at 100 µg/mL (Staphylococcus aureus [13]): 12 mm
zone of inhibition at 50 µg/mL (Escherichia coli [14]): 10 mm
zone of inhibition at 50 µg/mL (Bacillus subtilis [15]): 4 mm
MIC (Fusarium oxysporum [16]): 25 mg/L (≈ 83 µM)
MIC (Rhizoctonia solani [17]): 25 mg/L (≈ 83 µM)
zone of inhibition at 500 µg/mL (Escherichia coli [18]): 33 mm
zone of inhibition at 50 µg/mL (Fusarium oxysporum [19]): 10 mm
zone of inhibition at 100 µg/mL (Klebsiella pneumoniae [20]): 16 mm
MIC (Bacillus subtilis [21]): 20 mg/L (≈ 66.4 µM)
zone of inhibition at 100 µg/mL (Rhizoctonia solani [22]): 15 mm
zone of inhibition at 300 µg/mL (Fusarium oxysporum [23]): 24 mm
zone of inhibition at 200 µg/mL (Aspergillus flavus [24]): 12 mm
zone of inhibition at 500 µg/mL (Aspergillus niger [25]): 24 mm
zone of inhibition at 300 µg/mL (Escherichia coli [26]): 22 mm
zone of inhibition at 200 µg/mL (Staphylococcus aureus [27]): 15 mm
MIC (Aspergillus flavus [28]): 35 mg/L (≈ 116 µM)
zone of inhibition at 50 µg/mL (Rhizoctonia solani [29]): 10 mm
zone of inhibition at 500 µg/mL (Bacillus subtilis [30]): 22 mm
zone of inhibition at 100 µg/mL (Aspergillus flavus [31]): 9 mm
zone of inhibition at 200 µg/mL (Bacillus subtilis [32]): 11 mm
zone of inhibition at 100 µg/mL (Escherichia coli [33]): 15 mm
zone of inhibition at 200 µg/mL (Rhizoctonia solani [34]): 19 mm
zone of inhibition at 500 µg/mL (Fusarium oxysporum [35]): 30 mm
zone of inhibition at 500 µg/mL (Rhizoctonia solani [36]): 31 mm
zone of inhibition at 100 µg/mL (Bacillus subtilis [37]): 9 mm
zone of inhibition at 300 µg/mL (Rhizoctonia solani [38]): 24 mm
zone of inhibition at 300 µg/mL (Aspergillus flavus [39]): 13 mm
zone of inhibition at 50 µg/mL (Aspergillus niger [40]): 7 mm
zone of inhibition at 300 µg/mL (Klebsiella pneumoniae [41]): 25 mm
MIC (Escherichia coli [42]): 10 mg/L (≈ 33.2 µM)
zone of inhibition at 300 µg/mL (Bacillus subtilis [43]): 14 mm
zone of inhibition at 200 µg/mL (Escherichia coli [44]): 17 mm
zone of inhibition at 50 µg/mL (Aspergillus flavus [45]): 5 mm
zone of inhibition at 200 µg/mL (Aspergillus niger [46]): 15 mm
zone of inhibition at 500 µg/mL (Aspergillus flavus [47]): 22 mm
zone of inhibition at 300 µg/mL (Staphylococcus aureus [48]): 18 mm
